Laboratory results published in patent US20230321059A1, “MEPYRAMINE FOR USE IN THE TOPICAL TREATMENT OF NEUROPATHIC PAIN” (Assistance Publique - Hopitaux de Paris, priority 2020, published 2023).
Read-outs that look alike come from different tables or passages of the source.

Target: T1, human Nav1.7 (Homo sapiens, UniProt Q15858)
T1 construct: expressed in transfected cells; host or cells: HEK 293T
Test: Patch clamp recording of heterologously expressed human Nav1.7 currents in HEK 293T cells
Format: cell-based
Conditions: for IC50: 50-ms depolarizing pulse to 0 mV, HEK 293T cells, mean±SEM (n=4-10), read-out: IC50 for human Nav1.7 inhibition
Experimental: FIG. 1. A) Families of human Nav1.7 current traces in the presence of increasing concentrations of mepyramine (0-100 μM). The current was elicited by a 50-ms depolarizing pulse to 0 mV from a holding potential of −100 mV (top) or −60 mV (bottom). Voltage steps were applied every 15 s. B) Cumulative dose-response curves for human Nav1.7 inhibition by mepyramine derived from experiments as in A. The IC50 values were 4±0.1 μM at Vh of −60 mV (empty circles) or 15.3±0.1 μM at Vh of −100 mV (filled circles). Each data point is the mean±SEM (n=4-10). C) Representative I-V curve family of hNav1.7 currents recorded using a protocol (inset) where cells were depolarized to a variety of potentials from a holding potential of −100 mV. D) Normalized human Nav1.7 activation curves obtained from experiments as in C. Curves were fit by using a first-order Boltzmann relations (n=16).
Human embryonic kidney (HEK) 293T cells were cultured as described in Hao et al. (Neuron, 2013, 77:899-914) and were recorded 48 hours after co-transfection with human Nav1.7 (hNav1.7) and green fluorescent protein clones. Patch clamp recordings were performed using borosilicate electrodes (Harvard Apparatus) having a resistance of […] when filled with the intracellular solution. Recordings were made at room temperature (20-24° C.) using an Axopatch 200B amplifier (Axon Instruments), filtered at 1 kHz, and digitally sampled at 5-20 kHz. Data acquisition was performed with pClamp 10.2, and data were analyzed using Prism 4 software.
For voltage clamp protocols, currents were leak-subtracted by using a P/6 protocol. Voltage errors were minimized using 75-80% series resistance compensation. Intracellular pipette solution consisted of (mM): 130 CsCl, 10 Hepes, 8 NaCl, 0.4 NaGTP, 4 MgATP, 1 MgCl2, 1 CaCl2 and 10 EGTA (adjusted to pH7.3 with CsOH, ˜300 mOsm/l). […] Stock solution of Mepyramine […] was dissolved in distilled water. Cells were perfused with bath solution at flow rate of 5 mL/min.
The dose-response curve for mepyramine was fitted with the Hill equation: I/Imax=[M]^nH/(IC50^nH+[M]^nH), where IC50 is the half-maximal inhibitory concentration and nH the Hill coefficient. The activation curve (G-V) was fitted using Boltzmann function: G/Gmax=1/(1+exp^[(V1/2−V)/k]) where G/Gmax is the normalized conductance, V1/2 is the voltage of half-maximum conductance activation, and k is the steepness factor. Data were presented as mean±SEM.

[1] = HEK cells, in the absence of histamine and in the absence of H1 receptors

T1 sequence (Q15858 whole entry): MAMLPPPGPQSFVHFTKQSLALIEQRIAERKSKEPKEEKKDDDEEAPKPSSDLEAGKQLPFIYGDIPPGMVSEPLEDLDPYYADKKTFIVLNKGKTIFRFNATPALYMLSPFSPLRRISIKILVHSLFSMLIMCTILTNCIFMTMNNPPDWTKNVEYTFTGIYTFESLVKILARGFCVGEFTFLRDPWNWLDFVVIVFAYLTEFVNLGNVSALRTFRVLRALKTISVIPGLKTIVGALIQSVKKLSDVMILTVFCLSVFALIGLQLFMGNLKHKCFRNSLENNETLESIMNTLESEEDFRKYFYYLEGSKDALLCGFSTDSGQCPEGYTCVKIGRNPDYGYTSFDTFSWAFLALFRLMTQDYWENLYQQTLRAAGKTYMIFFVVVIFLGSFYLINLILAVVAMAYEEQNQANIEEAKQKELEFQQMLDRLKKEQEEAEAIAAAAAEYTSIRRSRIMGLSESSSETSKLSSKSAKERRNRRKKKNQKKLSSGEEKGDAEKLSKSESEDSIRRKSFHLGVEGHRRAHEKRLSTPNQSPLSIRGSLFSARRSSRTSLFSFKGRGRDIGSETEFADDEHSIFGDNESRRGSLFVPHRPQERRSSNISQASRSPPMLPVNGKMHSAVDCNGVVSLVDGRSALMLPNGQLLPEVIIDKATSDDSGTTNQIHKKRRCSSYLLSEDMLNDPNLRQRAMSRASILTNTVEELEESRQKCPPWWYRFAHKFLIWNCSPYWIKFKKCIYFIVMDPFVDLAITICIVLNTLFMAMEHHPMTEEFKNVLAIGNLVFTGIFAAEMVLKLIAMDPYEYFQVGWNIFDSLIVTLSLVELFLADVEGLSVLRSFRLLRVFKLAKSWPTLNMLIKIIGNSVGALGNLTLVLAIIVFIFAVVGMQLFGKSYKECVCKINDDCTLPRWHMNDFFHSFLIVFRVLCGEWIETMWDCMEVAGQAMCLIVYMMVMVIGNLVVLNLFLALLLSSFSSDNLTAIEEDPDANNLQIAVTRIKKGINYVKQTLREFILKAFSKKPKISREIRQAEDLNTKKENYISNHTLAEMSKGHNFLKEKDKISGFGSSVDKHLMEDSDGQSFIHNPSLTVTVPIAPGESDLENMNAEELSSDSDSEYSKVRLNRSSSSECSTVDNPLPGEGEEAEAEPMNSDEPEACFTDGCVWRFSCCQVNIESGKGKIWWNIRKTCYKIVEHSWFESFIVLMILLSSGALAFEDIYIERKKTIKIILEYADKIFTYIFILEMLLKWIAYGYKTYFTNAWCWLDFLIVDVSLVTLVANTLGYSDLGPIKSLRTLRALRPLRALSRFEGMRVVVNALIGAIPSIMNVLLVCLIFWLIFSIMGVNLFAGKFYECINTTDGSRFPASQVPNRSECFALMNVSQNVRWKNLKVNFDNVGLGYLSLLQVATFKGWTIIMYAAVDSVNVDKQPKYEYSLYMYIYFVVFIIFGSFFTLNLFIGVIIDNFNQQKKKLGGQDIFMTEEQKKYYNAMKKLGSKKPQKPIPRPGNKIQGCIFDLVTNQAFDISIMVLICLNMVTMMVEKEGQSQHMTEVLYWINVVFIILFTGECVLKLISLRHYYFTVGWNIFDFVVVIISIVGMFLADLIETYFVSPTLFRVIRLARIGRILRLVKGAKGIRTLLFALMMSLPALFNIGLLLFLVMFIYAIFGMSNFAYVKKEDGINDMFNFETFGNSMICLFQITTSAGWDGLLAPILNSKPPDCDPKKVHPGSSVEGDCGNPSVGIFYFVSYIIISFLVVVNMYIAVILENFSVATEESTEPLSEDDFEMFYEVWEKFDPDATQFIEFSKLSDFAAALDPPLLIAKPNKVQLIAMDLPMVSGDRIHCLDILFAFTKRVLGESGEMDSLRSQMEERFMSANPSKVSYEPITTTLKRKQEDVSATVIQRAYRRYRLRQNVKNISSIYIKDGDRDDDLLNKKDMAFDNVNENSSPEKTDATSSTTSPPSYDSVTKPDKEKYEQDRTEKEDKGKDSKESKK

Q: How did the “Dependence of the effect on H1 receptors” value [1] turn out when `COc1ccc(CN(CCN(C)C)c2ccccn2)cc1` [mepyramine, N,N-dimethyl-N′-(4-methoxybenzyl)-N′-(2-pyridyl) ethylenediamine] was run?
A: Its value is “independent of the H1 receptors”.

Q: And the “Inhibition of heterologously expressed human Nav1.7 channels” value [1]?
A: The value was “inhibits”.

Q: And the IC50 (Vh of −60 mV)?
A: The IC50 was 4 ± 0.1 µM.

Q: And the IC50 (Vh of −100 mV)?
A: Its IC50 is 15.3 ± 0.1 µM.
